Common to all, as to assay: NCI-60 cell line screen, 48 h
The subject of test [1] is NCI-H23 lung.
Test [2] deals with SK-MEL-2 melanoma.
Test [3] concerns MCF7 breast.
For test [4], the system named is SK-MEL-28 melanoma.
The subject of test [5] is IGROV1 ovarian.
In test [6] the test system is ACHN renal.
Test [7] has as its system TK-10 renal.
In test [8] the test system is HCT-116 colon.
In test [9] the test system is SK-MEL-5 melanoma.
Test [10] has as its system MDA-MB-435.

Values joined by “and” are separate entries in the source; they are usually repeats but may differ in a detail not shown here. Identical values can stand only once.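 Assay format: 96-well plates, 48-hour exposure. At the GI50, growth is halved. Definition used: TGI = concentration required for complete inhibition of growth.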

On to `NC(N)=NC(N)=Nc1cc2ccccc2c2ccccc12`, for which the GI50 is 12.3 µM in test [1]; 13.6 µM in test [2]; 3.7 µM in test [3]; 13.2 µM in test [4]; 4.04 µM in [5]; 5.07 µM in test [6]. The GI50 is 6.08 µM in test [7], 5.33 µM in test [8], 10.4 µM in [9] and 12.4 µM in [10]. Moreover, the TGI turned out to be 29.7 µM in test [1]; 30.5 µM in [2]; 18.8 µM in test [3]; 26.2 µM in [4]; 19.1 µM in test [5]; 17.3 µM in test [6]. Moreover, the TGI in test [7] was 20.5 µM; in test [8] it was 18.3 µM; in [9], 22.8 µM; in [10], 25.4 µM.
On to `CCCCNC(=O)NS(=O)(=O)c1ccc(N2N=C(c3ccc(C)cc3C)CC2c2ccc(N(C)C)cc2)cc1` (configuration not stated), for which the GI50 in test [1] is 4.92 µM; in test [2], 3.13 µM; in test [3] it was 2.63 µM; in [4], 2.56 µM; in test [5], 4.87 µM; in [6] it was 3.93 µM. Also, the GI50 was 5.64 µM in [7], 3.86 µM in test [8], 2.22 µM in test [9] and 2.55 µM in [10]. In addition, the TGI was more than 100 µM in test [1]; 8.46 µM in test [2]; more than 100 µM in test [3]; 7.96 µM in test [4]; more than 100 µM in [5]; more than 100 µM in test [6]. Besides, the TGI in test [7] was more than 100 µM; in [8], more than 100 µM; in [9] it was 5.42 µM; in test [10], 7.59 µM.
Take `Cc1cc(C2CCCCC2)n(O)c(=O)c1`: the GI50 is 3.03 µM in test [1]; 10.5 µM in test [2]; 3.01 µM in [3]; 4.07 µM in test [4]; 0.989 µM in test [5]; 1.06 µM in test [6]. In addition, the GI50 in test [7] is 9.91 µM; in test [8], 1.02 µM; in [9] it was 1.49 µM; in test [10], 2.27 µM. Also, the TGI is > 100 µM and 64.8 µM in test [1]; > 100 µM and 65.6 µM in test [2]; more than 100 µM in test [3]; more than 100 µM in test [4]; more than 100 µM in test [5]; more than 100 µM in [6]. Besides, the TGI was more than 100 µM in test [7]; more than 100 µM in test [8]; 7.38 µM and 38.3 µM in test [9]; more than 100 µM in test [10].
On to `COc1ccc(/C(=N/Nc2ccc([N+](=O)[O-])cc2)Sc2cc(Cl)c(C)cc2S(N)(=O)=O)cc1`, for which the GI50 in test [1] is 4.69 µM; in test [2], 12.3 µM; in test [3], 4.84 µM; in test [4], 6.57 µM; in test [5] it was 9.65 µM; in [6], 6.34 µM. Moreover, the GI50 in [7] is 2.47 µM; in test [8], 2.31 µM; in test [9], 0.706 µM; in test [10], 4.67 µM. The TGI in test [1] was 9.77 µM; in test [2] it was 34 µM; in test [3] it was 15.6 µM; in test [4], 16.6 µM; in [5] it was more than 93.2 µM; in test [6], 17.5 µM. Besides, the TGI in [7] was determined as 6.73 µM; in [8], 5.48 µM; in test [9] it was 7.43 µM; in test [10], 13.3 µM.
On to `COc1cc([N+](=O)[O-])ccc1NC(=O)C(F)(F)F`, for which the TGI in test [1], in test [2], in test [3], in [4], in test [5] and in [6] was more than 100 µM throughout. The TGI in test [7], in test [8], in [9] and in [10] was more than 100 µM throughout.
`COc1cc2c3c(n(CCCCl)c(=O)c2cc1OC)-c1ccccc1C3=O`: the GI50 in test [1] is 97.3 µM; in test [2], more than 100 µM; in test [3], 8.9 µM; in [6] it was 19.2 µM; in test [7], 19.6 µM; in [8], 2.46 µM. The GI50 is 21.9 µM in test [9] and more than 100 µM in test [10]. The TGI in test [1] is more than 100 µM; in test [2], more than 100 µM; in test [3] it was more than 100 µM; in test [6] it was more than 100 µM; in test [7] it was 68.6 µM; in test [8] it was more than 100 µM. Also, the TGI in test [9] and in test [10] was more than 100 µM in each case.
On to `C[C@]12CC[C@@H]3c4ccc(Oc5nc(N6CC6)nc(N6CC6)n5)cc4CC[C@H]3[C@@H]1CCC2=O`, for which the GI50 in [1] was 3.36 µM; in test [2], 3.16 µM; in [3] it was 2.78 µM; in test [4], 6.01 µM; in test [5] it was 3.3 µM; in test [6], 1.13 µM. The GI50 in [8] is 2.46 µM; in test [9], 1.54 µM; in test [10], 5.43 µM. Moreover, the TGI worked out at 19 µM in test [1]; 8.97 µM in test [2]; 14.7 µM in [3]; 42.8 µM in test [4]; 22.2 µM in test [5]; 13 µM in test [6]. Besides, the TGI was 18.8 µM in test [8], 3.13 µM in [9] and 22 µM in test [10].
`COc1ccc(S(=O)(=O)N(Cc2ccc3c(n2)C=CC(C)(C)O3)C2CCC2)cc1OC`: the GI50 in test [1] is 0.0145 µM; in [3], 0.0169 µM; in [4], less than 0.01 µM; in [5] it was less than 0.01 µM; in test [6], less than 0.01 µM; in [7], less than 0.01 µM. Also, the GI50 in test [8], in [9] and in test [10] was less than 0.01 µM in each case. Moreover, the TGI in [1] is 1.05 µM; in test [3], more than 38.2 µM; in [4] it was 0.461 µM; in test [5], 0.262 µM; in test [6], 0.0734 µM; in [7] it was 1.59 µM. Further, the results for the TGI in [8], in [9] and in test [10] were 4.05 µM, 0.0376 µM and 0.422 µM, respectively.

(Values after PubChem BioAssay (NCI).)
